Activity calls are given as the source filed them.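 The calls were made as follows: active = signal decrease with fitted half-maximal dose at or below ten times the highest valid tested dose; inconclusive = poor fit, or flat fit at 30 to 70% inhibition; inactive = the rest.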
Target: Zinc finger protein mex-5 (Caenorhabditis elegans) (UniProt Q9XUB2)
Test: inhibitors of MEX-5 RNA binding, dose response, biochemical, fluorescence polarization, C. elegans, cherry-picked, round 3 (AID 493250)
Details: purified MEX-5-MBP, FITC-TCR2 RNA fluorescence polarization; at 10 µM (top of the series)

Zinc finger protein mex-5 (Caenorhabditis elegans), sequence (Q9XUB2 whole entry, looked up): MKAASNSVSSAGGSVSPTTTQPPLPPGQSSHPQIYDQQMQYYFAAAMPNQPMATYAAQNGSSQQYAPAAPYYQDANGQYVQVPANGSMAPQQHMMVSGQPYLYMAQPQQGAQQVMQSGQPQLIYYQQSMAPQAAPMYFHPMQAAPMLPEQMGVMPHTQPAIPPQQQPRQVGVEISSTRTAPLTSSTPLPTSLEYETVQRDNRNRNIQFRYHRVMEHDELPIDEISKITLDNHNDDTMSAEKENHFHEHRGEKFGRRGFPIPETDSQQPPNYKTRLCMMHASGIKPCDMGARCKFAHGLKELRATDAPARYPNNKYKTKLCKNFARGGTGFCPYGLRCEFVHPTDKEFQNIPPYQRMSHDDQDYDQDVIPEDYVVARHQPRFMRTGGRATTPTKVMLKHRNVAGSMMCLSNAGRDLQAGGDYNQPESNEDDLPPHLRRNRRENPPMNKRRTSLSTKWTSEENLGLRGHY

Row | Structure (SMILES) | activity change, negative = inhibition
1 | CC1=Nc2ccccc2/C1=C\c1nc(-c2ccccc2)oc1O | inactive
2 | Cn1c(O)c(C2=c3ccccc3=NC2=O)[nH]c1=S | inactive
3 | C=CCn1c(O)c(N=NC(=O)CNC(=O)/C=C/c2ccco2)c2ccccc21 | inactive
4 | O=c1oc2cc([N+](=O)[O-])ccc2nc1/C=C(\O)c1cccc(Br)c1 | inactive
5 | COc1ccc(N=Nc2c(C)[nH][nH]c2=O)cc1 | inactive
6 | O=[N+]([O-])c1ccc(C2=CSC3=NCCN23)cc1 | inactive
7 | N#C/C(C(N)=O)=C1/CCc2ccccc2N1 | inactive
8 | CC(=O)c1c2c3c(c(Br)ccc3n(C)c1=O)C(=O)c1ccccc1-2 | inactive
9 | CCCOc1ccc([C@@H]2C3CN(C(=O)OCC)CC=C3C(C#N)=C(N)C2(C#N)C#N)cc1OC (some centres not stated) | inactive
10 | COC(=O)COc1ccc2c(c1)O/C(=C\c1cccc([N+](=O)[O-])c1)C2=O | inactive
11 | O=C(O)Cn1c(O)c(C2=c3ccccc3=NC2=O)sc1=O | inactive
12 | C#CCOCCOCCOCCNc1nc(N2CCN(C(=O)[C@H](CCCCN)n3cc(C(N)CO)nn3)CC2)nc(N2CCN(C(=O)[C@H](CCC(=O)O)n3cc(C(N)CC(C)C)nn3)CC2)n1 (some centres not stated) | inactive
13 | CC(=O)CCS(=O)(=O)c1ccc(Oc2ccc(S(=O)(=O)CCC(C)=O)cc2)cc1 | inactive
14 | Nc1ccc([N+](=O)[O-])cc1C(=O)NNC(=O)c1ccco1 | inactive
15 | CSc1ccccc1N=Cc1nc(-c2ccccc2)oc1O | inactive
16 | Cc1cc(=O)oc(C)c1C(=O)Nc1c(C)n(C)n(-c2ccccc2)c1=O | inactive

Row | Structure (SMILES) | activity change, negative = inhibition
17 | C[C@H](O)CC1=C[C@H](O)[C@@H](C)OC1=O | inactive
18 | CC1CN2C(c3ccc(Cl)cc3)=CSC2=N1 (configuration not stated) | inactive
19 | CCCCN(C(=O)c1ccc(C)o1)c1c(N)n(CCCC)c(=O)[nH]c1=O | inactive
20 | O=c1cc(-c2ccccc2)oc2ccc(O)cc12 | inactive
21 | O=c1nc(-c2ccccc2)c2cc(Br)ccc2[nH]1 | inactive
22 | CCCCCOP(=O)(OCCCCC)C1(NS(=O)(=O)c2ccccc2)C=CC(=O)c2ccccc21 (configuration not stated) | inactive
23 | C#CCOCCOCCOCCNc1nc(N2CCN(C(=O)[C@H]([C@@H](C)O)n3cc(CCCCN)nn3)CC2)nc(N2CCN(C(=O)[C@H](C)n3cc(CCCN=C(N)N)nn3)CC2)n1 | inactive
24 | O=c1[nH]cnc2c1C(c1ccccc1[N+](=O)[O-])c1c(nc[nH]c1=O)O2 | inactive
25 | COc1ccc(OC)c(/C=C/C(=O)Nc2ccc(OC)nc2)c1 | inactive
26 | O=C1/C(=C\c2ccc(Br)o2)Cc2ccccc21 | inactive
27 | COc1ccccc1N=Nc1c(C)[nH][nH]c1=O | inactive
28 | CCN(CC)c1ccc(/C=N/N2CCN(c3ccccc3OC)CC2)cc1 | inactive
29 | CC1=NN(C(N)=S)C(=O)C1N=Nc1cccc(Cl)c1C (configuration not stated) | inactive
30 | COc1ccc(/C=C/C(=O)c2cc(Cl)cc(Cl)c2O)c(OC)c1 | inactive
31 | O=C(N/N=C/c1ccncc1)c1cc([N+](=O)[O-])cc([N+](=O)[O-])c1O | inactive

Next, values leading:

Row | activity change, negative = inhibition | Structure (SMILES)
32 | inactive | O=C(O)c1ccc2cccnc2c1O
33 | inactive | CCN(CC(=O)Nc1ccc(NC(C)=O)cc1)Cc1c(O)ccc2cc(Br)ccc12
34 | inactive | O=C(NNC(=O)c1ccccc1[N+](=O)[O-])c1ccco1
35 | inactive | Cc1c(Cl)cccc1NC(=O)C(=O)NNS(=O)(=O)c1ccc(F)cc1
36 | inactive | Cc1ccc(NC(=O)CCC(=O)NNC(=S)Nc2ccc(F)cc2)c(C)c1
37 | inactive | Cc1ccc(N/N=C(\C#N)C(=O)c2ccsc2)cc1
38 | inactive | N#CC1=C(N)Oc2c(O)cc3ccccc3c2C1c1ccsc1 (configuration not stated)
39 | inactive | COc1ccc(-c2csc(Nc3ccc(S(N)(=O)=O)cc3)n2)cc1OC
40 | inactive | CC(C)CNC(=O)c1ccccc1Oc1ccccc1
41 | inactive | CSc1ccc(/C=C/C(=O)c2ccc(NC(C)=O)cc2)cc1
42 | inactive | COC(=O)c1ccc(CC(=O)c2ccc(O)cc2O)o1
43 | inactive | O=C(O)c1ccc(N2Cc3ccccc3C2)cc1O
44 | inactive | CCCc1nc2ccccc2c(=O)n1/N=C/c1ccc(O)c(O)c1
45 | inactive | O=C1N=c2ccccc2=C1c1sc(=S)n(NC(=O)c2ccccc2)c1O
46 | inactive | Cc1nn(C(C)C(=O)NNC(=S)Nc2ccc(Cl)cc2)c(C)c1[N+](=O)[O-] (configuration not stated)
47 | inactive | O=C(N/N=C/c1cccnc1)c1ccccc1
